Measured values published in article PMC9454457 (Journal of Nuclear Medicine, 2022).
Like-named read-outs stand apart in the source and are kept apart here.

Assays:
[1] = In vivo metabolic stability in murine plasma and urine; set-up: species or system CB17-SCID mice; settings: 30 min after injection, n = 3
Experimental: Approximately 30–40 MBq (1 nmol, 150 μL) of the ^177Lu-labeled compounds were injected into the tail vein of anesthetized CB17-SCID mice (n = 3). After euthanasia at 30 min after injection, blood and urine samples were collected. Blood proteins were precipitated by treatment with ice-cold MeCN (v/v = 1/1), followed by centrifugation (13,000 rpm, 20 min). The supernatants were decanted and further centrifuged (13,000 rpm, 10 min) using a Costar Spin-X centrifuge tube filter (0.45 μm). The filtrated plasma samples and the urine samples were analyzed using radio–RP-HPLC.
(§1) FIGURE 2. Preclinical data of ^nat/177Lu-RM2 (red), ^nat/177Lu-NeoBOMB1 (gray), ^nat/177Lu-AMTG (green), and ^nat/177Lu-AMTG2 (blue). (A) Affinity data on PC-3 and T-47D cells (1.5 × 10^5 cells/mL/well) using 3-^125I-D-Tyr^6-MJ9 (0.2 nM/well) as radiolabeled reference (2 h, room temperature, Hanks’ balanced salt solution plus 1% bovine serum albumin [v/v]). (B) GRPR-mediated internalization (0.25 pmol/well) on PC-3 cells as percentage of applied activity (incubation at 37°C for 1 h, Dulbecco modified Eagle medium/F-12 plus 5% bovine serum albumin [v/v], 1.5 × 10^5 cells/mL/well). Data were corrected for nonspecific binding (10^−3 M ^natLu-RM2). (C) Lipophilicity at pH 7.4 (logD7.4). (D) Metabolic stability in vitro in human plasma (left) (37°C, 72 ± 2 h; n = 4), and metabolic stability in vivo in murine plasma (middle) and murine urine (right) at 30 min after injection (n = 3). Data are expressed as mean ± SD.

[2] = Biodistribution in PC-3 tumor-bearing CB17-SCID mice; assay type: in vivo; settings: 24 h after injection; for tissue uptake at 24 h: CB17-SCID, mouse, intravenous, total radioactivity
Experimental: A detailed description of tumor inoculation is provided in the supplemental materials. Approximately 2–5 MBq (100 pmol, 150 μL) of the ^177Lu-labeled GRPR ligands were injected into the tail vein of anesthetized (2% isoflurane) PC-3 tumor–bearing mice (biodistribution, n = 4; imaging, n = 1).
For biodistribution studies, organs were removed, weighed, and measured in a γ-counter (Perkin Elmer) after euthanasia at 24 h after injection.
For all competition studies, 3.62 mg/kg (40 nmol) of ^natLu-RM2 (10^−3 M in phosphate-buffered saline) were coadministered.

[3] = In vitro metabolic stability in human plasma; assay type: in vitro ADME; settings: 37°C, 72 ± 2 h, n = 4
Experimental: Metabolic stability in vitro was determined through a procedure published by Linder et al. that was slightly modified ([16]). Immediately after labeling, 200 μL of human plasma were added and the mixture was incubated at 37°C for 72 ± 2 h. Proteins were precipitated by treatment with ice-cold EtOH (150 μL) and ice-cold MeCN (450 μL), followed by centrifugation (13,000 rpm, 20 min). The supernatants were decanted and further centrifuged (13,000 rpm, 10 min) using a Costar Spin-X (Corning) centrifuge tube filter (0.45 μm). The filtrated plasma samples were analyzed using radio–RP-HPLC.
as §1

[4] = adrenal, 100 pmol, 100 pmol, n = 4, read-out: Biodistribution, Adrenal
[5] = adrenal, 3.62 mg/kg, coinjection of natLu-RM2 3.62 mg/kg, n = 3, read-out: Biodistribution, Adrenal, competition study
[6] = blood, 100 pmol, 100 pmol, n = 4, read-out: Biodistribution, Blood
[7] = blood, 3.62 mg/kg, coinjection of natLu-RM2 3.62 mg/kg, n = 3, read-out: Biodistribution, Blood, competition study
[8] = bone, 100 pmol, 100 pmol, n = 4, read-out: Biodistribution, Bone
[9] = bone, 3.62 mg/kg, coinjection of natLu-RM2 3.62 mg/kg, n = 3, read-out: Biodistribution, Bone, competition study
[10] = heart, 100 pmol, 100 pmol, n = 4, read-out: Biodistribution, Heart
[11] = heart, 3.62 mg/kg, coinjection of natLu-RM2 3.62 mg/kg, n = 3, read-out: Biodistribution, Heart, competition study
[12] = intestine, 100 pmol, 100 pmol, n = 4, read-out: Biodistribution, Intestine
[13] = intestine, 3.62 mg/kg, coinjection of natLu-RM2 3.62 mg/kg, n = 3, read-out: Biodistribution, Intestine, competition study
[14] = kidney, 100 pmol, 100 pmol, n = 4, read-out: Biodistribution, Kidney
[15] = kidney, 3.62 mg/kg, coinjection of natLu-RM2 3.62 mg/kg, n = 3, read-out: Biodistribution, Kidney, competition study
[16] = liver, 100 pmol, 100 pmol, n = 4, read-out: Biodistribution, Liver
[17] = liver, 3.62 mg/kg, coinjection of natLu-RM2 3.62 mg/kg, n = 3, read-out: Biodistribution, Liver, competition study
[18] = lung, 100 pmol, 100 pmol, n = 4, read-out: Biodistribution, Lung
[19] = lung, 3.62 mg/kg, coinjection of natLu-RM2 3.62 mg/kg, n = 3, read-out: Biodistribution, Lung, competition study
[20] = muscle, 100 pmol, 100 pmol, n = 4, read-out: Biodistribution, Muscle
[21] = muscle, 3.62 mg/kg, coinjection of natLu-RM2 3.62 mg/kg, n = 3, read-out: Biodistribution, Muscle, competition study
[22] = pancreas, 100 pmol, 100 pmol, n = 4, read-out: Biodistribution, Pancreas
[23] = pancreas, 3.62 mg/kg, coinjection of natLu-RM2 3.62 mg/kg, n = 3, read-out: Biodistribution, Pancreas, competition study
[24] = spleen, 100 pmol, 100 pmol, n = 4, read-out: Biodistribution, Spleen
[25] = spleen, 3.62 mg/kg, coinjection of natLu-RM2 3.62 mg/kg, n = 3, read-out: Biodistribution, Spleen, competition study
[26] = stomach, 100 pmol, 100 pmol, n = 4, read-out: Biodistribution, Stomach
[27] = stomach, 3.62 mg/kg, coinjection of natLu-RM2 3.62 mg/kg, n = 3, read-out: Biodistribution, Stomach, competition study
[28] = tumor (PC-3), 100 pmol, PC-3 tumor, 100 pmol, n = 4, read-out: Biodistribution, Tumor
[29] = tumor (PC-3), 3.62 mg/kg, PC-3 tumor, coinjection of natLu-RM2 3.62 mg/kg, n = 3, read-out: Biodistribution, Tumor, competition study

Intact tracer in murine plasma in vivo [1] | Intact tracer in murine urine in vivo [1] | tissue uptake at 24 h [2, 4] [%ID/g] | tissue uptake at 24 h [2, 5] [%ID/g] | tissue uptake at 24 h [2, 6] [%ID/g] | tissue uptake at 24 h [2, 7] [%ID/g] | tissue uptake at 24 h [2, 8] [%ID/g] | tissue uptake at 24 h [2, 9] [%ID/g] | tissue uptake at 24 h [2, 10] [%ID/g] | tissue uptake at 24 h [2, 11] [%ID/g] | tissue uptake at 24 h [2, 12] [%ID/g] | tissue uptake at 24 h [2, 13] [%ID/g] | tissue uptake at 24 h [2, 14] [%ID/g] | tissue uptake at 24 h [2, 15] [%ID/g] | tissue uptake at 24 h [2, 16] [%ID/g] | tissue uptake at 24 h [2, 17] [%ID/g] | tissue uptake at 24 h [2, 18] [%ID/g] | tissue uptake at 24 h [2, 19] [%ID/g] | tissue uptake at 24 h [2, 20] [%ID/g] | tissue uptake at 24 h [2, 21] [%ID/g] | Compound | further results
77.6% ± 3.1% | 61.6% ± 1.6% | 0.26 ± 0.14 | 0.03 ± 0.02 | 0.011 | 0.002 ± 0.001 | 0.22 ± 0.05 | 0.02 ± 0.01 | 0.03 ± 0.02 | 0.02 ± 0.01 | 0.3 ± 0.04 | 0.34 ± 0.35 | 1.2 to 1.9 | 1.63 ± 0.44 | 0.32 ± 0.14 | 0.74 ± 0.44 | 0.05 ± 0.01 | 1.18 ± 1.49 | 0.003 ± 0.003 | 0.003 ± 0.002 | CC(C)C[C@H](NC(=O)C[C@H](O)[C@H](CC(C)C)NC(=O)[C@H](Cc1c[nH]cn1)NC(=O)CNC(=O)[C@@H](NC(=O)[C@H](C)NC(=O)[C@](C)(Cc1c[nH]c2ccccc12)NC(=O)[C@H](CCC(N)=O)NC(=O)[C@@H](Cc1ccccc1)NC(=O)CN1CCC(NC(=O)CCC(C(=O)O)N2CCN(CC(=O)O)CCN(CC(=O)O)CCN(CC(=O)O)CC2)CC1)C(C)C)C(N)=O (stereo partly drawn) [^177Lu-AMTG2, ^177Lu-DOTAGA-α-Me-L-Trp^8-RM2, metal not drawn] | tissue uptake at 24 h [2, 22]: 0.95 ± 0.14 %ID/g; tissue uptake at 24 h [2, 23]: 0.07 ± 0.01 %ID/g; tissue uptake at 24 h [2, 24]: 0.15 ± 0.07 %ID/g; tissue uptake at 24 h [2, 25]: 1.06 ± 1.08 %ID/g; tissue uptake at 24 h [2, 26]: 0.12 ± 0.03 %ID/g; tissue uptake at 24 h [2, 27]: 0.04 ± 0.01 %ID/g; tissue uptake at 24 h [2, 28]: 7.97 ± 1.34 %ID/g; tissue uptake at 24 h [2, 29]: 0.36 ± 0.25 %ID/g; Intact compound in human plasma in vitro [3]: 66.2% ± 5.1%
92.9% ± 0.7% | 68.2% ± 3.1% | 0.46 ± 0.22 | 0.09 ± 0.07 | 0.004 ± 0.001 | 0.003 | 0.05 ± 0.02 | 0.05 ± 0.03 | 0.02 | 0.02 ± 0.01 | 0.2 ± 0.1 | 0.27 ± 0.21 | 1.2 to 1.9 | 1.17 ± 0.26 | 0.14 ± 0.03 | 1.4 ± 0.86 | 0.04 ± 0.01 | 0.27 ± 0.15 | 0.005 ± 0.003 | 0.003 ± 0.002 | CC(C)C[C@H](NC(=O)C[C@H](O)[C@H](CC(C)C)NC(=O)[C@H](Cc1c[nH]cn1)NC(=O)CNC(=O)[C@@H](NC(=O)[C@H](C)NC(=O)[C@](C)(Cc1c[nH]c2ccccc12)NC(=O)[C@H](CCC(N)=O)NC(=O)[C@@H](Cc1ccccc1)NC(=O)CN1CCC(NC(=O)CN2CCN(CC(=O)O)CCN(CC(=O)O)CCN(CC(=O)O)CC2)CC1)C(C)C)C(N)=O [^177Lu-AMTG, ^177Lu-α-Me-L-Trp^8-RM2, metal not drawn] | Higher activity level in PC-3 tumor than for 177Lu-RM2 [2]: 35%; tissue uptake at 24 h [2, 22]: 0.56 ± 0.3 %ID/g; tissue uptake at 24 h [2, 23]: 0.05 ± 0.03 %ID/g; tissue uptake at 24 h [2, 24]: 0.1 ± 0.02 %ID/g; tissue uptake at 24 h [2, 25]: 2.97 ± 2.01 %ID/g; tissue uptake at 24 h [2, 26]: 0.1 ± 0.04 %ID/g; tissue uptake at 24 h [2, 27]: 0.04 ± 0.02 %ID/g; tissue uptake at 24 h [2, 28]: 11.5 %ID/g; tissue uptake at 24 h [2, 29]: 0.33 ± 0.2 %ID/g; Intact compound in human plasma in vitro [3]: 77.7% ± 8.7%
